# Test results as given in article PMC9127750, “Structure-based design of CDC42 effector interaction inhibitors for the treatment of cancer” (Cell reports, 2022).
# Tested on: WM3248 melanoma cells, 486 antibodies
# Assay: Reverse phase protein arrays (RPPA);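 on CA9.R.C RPPA level: ratio of treated to vehicle (0 µM) normalized linear protein signal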;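 on RPPA ACC1.R.C: ratio of treated to vehicle (0 µM) normalized linear protein signal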;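 on RPPA ASNS.R.V: ratio of treated to vehicle (0 µM) normalized linear protein signal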;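 on RPPA AceCS1.R.V: ratio of treated to vehicle (0 µM) normalized linear protein signal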;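 on RPPA Akt1.R.V: ratio of treated to vehicle (0 µM) normalized linear protein signal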;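 on RPPA Ambra1 pS52.R.C: ratio of treated to vehicle (0 µM) normalized linear protein signal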;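 on RPPA Atg5.R.C: ratio of treated to vehicle (0 µM) normalized linear protein signal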;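 on RPPA Bim.R.V: ratio of treated to vehicle (0 µM) normalized linear protein signal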
# Format: cell-based, Human
# Settings: 5 uM
# From the text: Pellets were snap frozen in liquid nitrogen and shipped to MD Anderson Cancer Center core RPPA facility for RPPA analysis (Table S5). Three biological replicates for each sample were generated.
# Nomenclatures on the RPPA heatmaps: name_of_antibody.species_of_antibody.status_of_antibody. V - antibody validated; C - validation of antibody in progress; Q - antibody nonspecific; E – under evaluation; antibodies raised in M - mouse, G - goat, R - rabbit, or T - rat.
smiles,measurement,setting,value
"CN(C)c1cccc(Nc2cc(-c3ccccc3)nc(C3CCNCC3)n2)c1 [ARN22089, N1,N1-dimethyl-N3-(6-phenyl-2-(piperidin-4-yl)pyrimidin-4-yl)benzene-1,3-diamine]",RPPA Akt_pT308.R.V,5W3,0.946
same,RPPA Ambra1_pS52.R.C,5W3,0.917
same,RPPA Annexin.I.M.V,5W3,0.971
same,RPPA Annexin.VII.M.V,5W3,1.007
same,RPPA Atg3.R.V,5W3,1.133
same,RPPA Atg4B.R.C,5W3,1.148
same,RPPA Atg5.R.C,5W3,0.936
same,RPPA Atg7.R.V,5W3,1.164
same,RPPA Aurora.A.R.C,5W3,1.000
same,RPPA Aurora.ABC_pT288_pT232_pT198.R.C,5W3,0.878
same,RPPA Aurora.B.R.V,5W3,0.688
same,RPPA Axl.R.V,5W3,1.276
same,RPPA B7.H4.R.C,5W3,1.076
same,RPPA B.Raf_pS445.R.V,5W3,1.159
same,RPPA BAP1.M.V,5W3,0.823
same,RPPA BCL2A1.R.V,5W3,0.750
same,RPPA BMK1.Erk5_pT218_Y220.R.V,5W3,1.014
same,RPPA BRCA1.M.C,5W3,0.946
same,RPPA BRD4.R.V,5W3,1.138
same,RPPA Bad_pS112.R.V,5W3,1.056
same,RPPA Bak.R.C,5W3,1.134
same,RPPA Bax.R.V,5W3,0.916
same,RPPA Bcl2.R.C,5W3,0.798
same,RPPA Bcl.xL.R.V,5W3,0.681
same,RPPA Beclin.R.C,5W3,0.789
same,RPPA Bid.R.C,5W3,1.142
same,RPPA Bim.R.V,5W3,0.991
same,RPPA X4E.BP1.R.V,5W3,1.157
same,RPPA X4E.BP1_pT37_T46.R.V,5W3,0.968
same,RPPA X14.3.3.zeta.R.V,5W3,0.946
same,RPPA X14.3.3βR.V,5W3,1.033
same,RPPA X14.3.3εM.C,5W3,0.879
same,RPPA X53BP1.R.V,5W3,0.922
same,RPPA b.Catenin.R.V,5W3,0.837
same,RPPA b.Catenin_pT41_S45.R.V,5W3,0.998
same,RPPA c.Abl.R.V,5W3,1.059
same,RPPA c.Abl_pY412.R.C,5W3,1.150
same,RPPA c.IAP2.R.C,5W3,1.026
same,C.Raf.R.C RPPA level,Average,1.065
same,C.Raf_pS338.R.V RPPA level,Average,1.113
same,CA9.R.C RPPA level,Average,0.982
same,CD2.M.C RPPA level,Average,1.031
same,CD4.R.V RPPA level,Average,1.062
same,CD5.M.C RPPA level,Average,1.017
same,CD20.R.C RPPA level,Average,0.788
same,CD26.R.V RPPA level,Average,0.939
same,CD29.M.V RPPA level,Average,1.028
same,CD31.M.V RPPA level,Average,1.028
same,CD44.R.C RPPA level,Average,0.921
same,CD45.M.V RPPA level,Average,1.027
same,CD49b.M.V RPPA level,Average,0.960
same,CD68.M.C RPPA level,Average,1.012
same,CD74.M.V RPPA level,Average,0.998
same,CD134.R.V RPPA level,Average,1.020
same,CD171.M.V RPPA level,Average,0.844
same,CDK1_pT14.R.C RPPA level,Average,1.060
same,CDK9.R.V RPPA level,Average,0.980
same,CDT1.R.V RPPA level,Average,1.028
same,CENP.A.R.V RPPA level,Average,0.953
same,CHD1L.R.V RPPA level,Average,1.018
same,CIITA.R.C RPPA level,Average,0.895
same,COG3.R.V RPPA level,Average,1.097
same,CRABP1.R.C RPPA level,Average,1.004
same,CRABP2.R.V RPPA level,Average,1.035
same,CREB_pS133.R.C RPPA level,Average,1.124
same,CSK.R.C RPPA level,Average,0.918
same,Calnexin.R.V RPPA level,Average,0.992
same,Caspase.7.cleaved..R.C RPPA level,Average,1.029
same,Caspase.8.M.Q RPPA level,Average,0.956
same,Caspase.8.cleaved.R.C RPPA level,Average,1.054
same,Cdc6.R.V RPPA level,Average,0.980
same,Cdc42.R.C RPPA level,Average,1.028
same,Chk1_pS296.R.V RPPA level,Average,1.083
same,Chk1_pS345.R.C RPPA level,Average,0.981
same,Chk2.M.V RPPA level,Average,0.925
same,Chk2_pT68.R.C RPPA level,Average,1.151
same,Claudin.7.R.V RPPA level,Average,0.907
same,Collagen.VI.R.V RPPA level,Average,1.059
same,Complex.II.Subunit.M.V RPPA level,Average,0.933
same,Connexin.43.R.C RPPA level,Average,1.140
same,Coup.TFII.R.C RPPA level,Average,1.033
same,Cox2.R.C RPPA level,Average,1.057
same,Cox.IV.R.V RPPA level,Average,1.028
same,Creb.R.C RPPA level,Average,1.080
same,CtIP.R.V RPPA level,Average,0.961
same,Cyclin.B1.R.V RPPA level,Average,1.030
same,Cyclin.D1.R.C RPPA level,Average,1.001
same,Cyclin.D3.M.V RPPA level,Average,1.046
same,Cyclin.E1.R.V RPPA level,Average,0.995
same,Cyclophilin.F.M.V RPPA level,Average,0.908
same,D.a.Tubulin.R.V RPPA level,Average,1.114
same,DAPK1_pS308.M.C RPPA level,Average,0.822
same,DDB.1.R.V RPPA level,Average,1.124
same,DDR1.R.V RPPA level,Average,0.952
same,DDR1_pY513.R.C RPPA level,Average,1.021
same,DJ1.R.V RPPA level,Average,1.059
same,DM.K9.Histone.H3.M.V RPPA level,Average,0.994
same,DNA.Ligase.IV.R.C RPPA level,Average,1.104
same,DNA_POLG.R.V RPPA level,Average,0.927
same,RPPA A.Raf.R.V,Average,1.059
same,RPPA A.Raf_pS299.R.C,Average,0.992
same,RPPA ACC1.R.C,Average,1.065
same,RPPA ACC_pS79.R.V,Average,0.961
same,RPPA ACLY_pS455.R.V,Average,0.986
same,RPPA ACSL1.R.V,Average,0.842
same,RPPA ACVRL1.R.C,Average,0.970
same,RPPA ADAR1.M.V,Average,1.014
same,RPPA ALKBH5.R.V,Average,0.919
same,RPPA AMPK.a2_pS345.R.V,Average,1.081
same,RPPA AMPKa.R.C,Average,1.048
same,RPPA AMPKa_pT172.R.C,Average,1.331
same,RPPA AR.R.V,Average,1.032
same,RPPA ARID1A.R.C,Average,1.009
same,RPPA ASNS.R.V,Average,1.062
same,RPPA ATM.R.V,Average,1.153
same,RPPA ATM_pS1981.R.V,Average,0.964
same,RPPA ATP5A.M.C,Average,0.801
same,RPPA ATP5H.R.V,Average,0.961
same,RPPA ATR.R.V,Average,0.966
same,RPPA ATRX.R.C,Average,1.030
same,RPPA ATR_pS428.R.C,Average,1.061
same,RPPA AceCS1.R.V,Average,0.899
same,RPPA Akt1.R.V,Average,0.928
same,RPPA Akt1_pS473.R.V,Average,1.048
same,RPPA Akt2.R.V,Average,1.002
same,RPPA Akt2_pS474.R.C,Average,1.185
same,RPPA Akt.R.V,Average,1.002
same,RPPA Akt_pS473.R.V,Average,1.132
same,RPPA Akt_pT308.R.V,Average,0.940
same,RPPA Ambra1_pS52.R.C,Average,0.946
same,RPPA Annexin.I.M.V,Average,1.026
same,RPPA Annexin.VII.M.V,Average,0.993
same,RPPA Atg3.R.V,Average,1.035
same,RPPA Atg5.R.C,Average,0.970
same,RPPA Atg7.R.V,Average,0.970
same,RPPA Aurora.A.R.C,Average,0.940
same,RPPA Aurora.ABC_pT288_pT232_pT198.R.C,Average,0.876
same,RPPA Aurora.B.R.V,Average,0.890
same,RPPA Axl.R.V,Average,1.076
same,RPPA B7.H3.R.C,Average,1.022
same,RPPA B7.H4.R.C,Average,1.046
same,RPPA B.Raf.R.C,Average,1.049
same,RPPA BAP1.M.V,Average,0.921
same,RPPA BCL2A1.R.V,Average,0.906
same,RPPA BMK1.Erk5_pT218_Y220.R.V,Average,0.997
same,RPPA Bad_pS112.R.V,Average,1.055
same,RPPA Bax.R.V,Average,0.956
same,RPPA Bcl2.R.C,Average,0.897
same,RPPA Bcl.xL.R.V,Average,0.932
same,RPPA Beclin.R.C,Average,0.921
same,RPPA BiP.GRP78.M.C,Average,0.957
same,RPPA Bid.R.C,Average,1.077
same,RPPA Bim.R.V,Average,0.984
same,RPPA DNMT1.R.V,Average,0.995
same,RPPA DRP1.R.V,Average,1.010
same,RPPA DUSP4.R.V,Average,1.114
same,RPPA DYRK1B.R.C,Average,1.013
same,RPPA Dvl3.R.V,Average,1.014
same,RPPA E2F1.R.V,Average,0.961
same,RPPA E.Cadherin.R.V,Average,0.957
same,RPPA EGFR.R.V,Average,0.980
same,RPPA EGFR_pY1068.R.C,Average,0.993
same,RPPA EGFR_pY1173.R.V,Average,1.046
